Measurements taken from patent publication US20110251135A1, “INHIBITORS OF PERITONEAL SEEDING OF CANCER CELLS” (University of Utah Research Foundation, priority 2008, published 2011).
Entries after “also recorded” stand apart in the source; their conditions may differ. Where a SMILES comes first, the peptide text is derived from it. The star is where a group is joined. Cbz = O=C(OCc1ccccc1)*

Legend:
[1] = tested on: colon and pancreatic cancer cells; test: Apoptosis of colon and pancreatic cancer cells during readhesion; assay type: cell-based, human
HT-29 cells [2] = test: Cell survival and readhesion assay (crystal violet); assay type: cell-based, human; conditions: HT-29 (overexpress PPARγ); 30 μM GW 9662
Description: (§1) Untreated adherent monolayers (Control) and Jurkat cells treated with TNFα (Jurkat Control) served as controls. The cells were collected and analyzed for NF-κB activation in an ELISA (see Methods). […] The floating and readherent cells were collected and lysed. Aliquots of the cell lysates were used to generate cleaved PARP immunoblots. All lanes contain equal total protein concentrations and the actin blot served as a loading control. The blots shown are typical of duplicate experiments. […] The floating cells were washed away and the adherent cells were then fixed and stained with crystal violet. The cells were lysed in deoxycholate and the intensity of the staining quantified by spectrophotometry. The results are normalized to the controls.
(§2) FIGS. 13A-B show transiently suspended Su.86 (PPARγ-negative) and HT-29 (PPARγ-positive) cancer cells were allowed to readhere in the presence of various concentrations of ciglitazone for 8 hours. The cells were also incubated with or without the irreversible PPARγ inhibitor GW9662 during readhesion. The floating cells were washed away and the adherent cells were then fixed and stained with crystal violet. The cells were lysed in deoxycholate and the intensity of the staining quantified by spectrophotometry. The results are normalized to the controls. […]

Su.86 cells = test: as above; assay type: cell-based, human; conditions: Su.86 (lack PPARγ); 30 μM GW 9662
Description: as §1, §2

HT-29 cells [3] = test: Cleaved PARP immunoblot of adherent and nonadherent cells; assay type: cell-based, human; conditions: 20 μM MG-132 for 8 h
Method: The cells were washed twice in ice cold PBS and then lysed in 4° C. lysis buffer (50 mM HEPES, 150 mM NaCl, 1.5 mM MgCl2, 1 mM EGTA, 100 mM NaF, 10 mM Na2PO4, 1 mM Na3VO4, 10% glycerol, 1% TRITON™ X-100, and 1 μg/mL each of aprotinin, leupeptin, chymostatin, pepstatin) and clarified at 12,000 rpm at 4° C. for 15 minutes. The lysates were normalized for total protein concentration. Aliquots of the lysates were then mixed 1:1 in sample buffer (125 mM Tris-HCl (pH 6.8), 20% glycerol, 4% sodium dodecyl sulfate, 2% β-mercaptoethanol, 10 μg/mL bromophenol blue) and boiled for 3 minutes. The samples were loaded onto SDS-PAGE gels (7.5 or 10% acrylamide). The proteins were transferred to nitrocellulose from the gels and incubated in blocking buffer (1% bovine serum albumin (Bio-Rad), 100 mM Tris-Cl (pH 7.4), 0.9% NaCl, 0.1% Nonidet) overnight at 4° C.
(§3) For immunodetection, the blocked blots were probed with primary antibody for 2 hours at 4° C. on a rocker. […] Alkaline phosphatase was detected by a colorimetric reaction using a BCIP (5-bromo-4-chloro-3-indolyl phosphate)/NBT (nitroblue tetrazolium) kit (Zymed).
It was confirmed in HT-29 cells that were treated with increasing concentrations of BAY 11-7085 for 24 h. After separating the HT-29 cells that remained adherent and those that became nonadherent after BAY 11-7085 treatment, the percentage of apoptotic cells was determined for each group. […]

[4] = tested on: transiently suspended HT-29 cells; test: Apoptosis of transiently suspended cells during readhesion (annexin V assay); assay type: cell-based, human; conditions: various concentrations, 4 hours; compared with BAY 11-7085
Method: HT-29 cells that were either transiently suspended with trypsin-EDTA or adherent for three days, were treated at time zero with DMSO or 10-100 μM BAY 11-7085. The percent of apoptotic cells was determined using the annexin V flow cytometry assay and graphed versus the dose of BAY 11-7085. FIG. 4B are photographs showing DLD-1, FIG. 4C are photographs showing HCT-116, and FIG. 4D are photographs showing HT-29 cells that were transiently suspended in trypsin-EDTA and allowed to readhere to glass coverslips for 1-24 hours. The cells were fixed and immunostained with an NF-κB p65 subunit monoclonal antibody.
The transiently suspended cells were lysed and allowed to bind to DNA oligonucleotides, containing the NF-κB consensus binding site, that were immobilized to 96-well plates. NF-κB protein bound to the oligonucleotides was detected by an antibody to the p65 subunit that only recognized p65 that is bound to DNA. The positive control was HeLa cells that were stimulated with TNFα. A control was performed using excess free NF-κB oligonucleotides (Competitor). […] NF-κB binding activity was determined by the TransAM assay as in FIG. 5A. […] The data shown represent typical results of three separate experiments. […] An immunoblot for COX-2 was performed.
The percentage of apoptotic cells was determined using the annexin V assay. The data points represent the averages of three experiments; bars, +−.SE. E. DLD-1 and F. HT-29 cells were transduced with an adenovirus containing the IκB super-repressor construct. After 3 days, the cells were transiently suspended and allowed to readhere in the presence of subapoptotic concentrations of BAY 11-7085 or DMSO (vehicle) for 8 hours. The data are expressed as fractions of cells surviving compared with the controls (no adenovirus) and were quantitatively determined by staining the remaining adherent cells with crystal violet.
(§4) Single cell suspensions were plated at 100,000 cells per well in 24-well plates in media containing DMSO, BAY 11-7082, BAY 11-7085, or MG-132 for 8-24 hours in an incubator. Alternatively, DMSO, BAY 11-7082, BAY 11-7085, or MG-132 were added to cells that were confluent and adherent for several days. The nonadherent cells were aspirated off with the media and spun for 3 minutes at 2,000 rpm in 15 mL polypropylene tubes. The adherent cells were washed twice with PBS, dispersed in trypsin, and spun down for 3 minutes at 2,000 rpm in 15 mL polypropylene tubes. The nonadherent and adherent cells were resuspended in 1× binding buffer (10 mM HEPES/NaOH, pH 7.4, 140 mM NaCl, and 2.5 mM CaCl2) to a final concentration of 10^6 cells/mL. 100 μL of the cell solution were transferred to a 5 mL culture tube and incubated with 5 μL of annexin V-FITC-conjugated monoclonal antibody (Pharmingen) and 10 μl, of propidium iodide (from a 50 μg/mL stock solution made in PBS) in the dark at 25° C. for 15 minutes. 400 μL of binding buffer was added to each tube and the cells were analyzed by flow cytometry immediately. The percent of apoptosis was determined as the percent of annexin V-positive, propidium iodide-negative cells of the total cells counted.
Various concentrations of BAY 11-7085 were added to HT-29 cells that were transiently suspended in trypsin-PBS for approximately 15 minutes before replating. The transiently suspended cells were quickly allowed to readhere in order to prevent anoikis. Alternatively, BAY 11-7085 was added to adherent HT-29 cell monolayers.

HCT-116 cells = test: Cleaved PARP immunoblot of adherent and non-adherent cells; assay type: cell-based, human; conditions: 20 μM MG-132 for 24 hours
Description: FIG. 3 is a group of graphs that show NF-κB inhibitors cause apoptosis of colon cancer cells. […] The data points represent the average percent of annexin V-positive, propidium iodide-negative cells (of the total cells counted) from triplicate experiments. The error bars represent the standard error of the means. […] The results shown are a graphic representation of individual flow cytometry results expressed as the percentage of cells that were annexin V-positive of those that excluded propidium iodide. […] An immunoblot of the lysates for cleaved PARP was performed. Each lane represents equal total protein concentrations. […] The cells were allowed to adhere to plastic dishes for 1 hour after which they were washed gently in PBS and stained with crystal violet. The crystal violet stained cells were solubilized in deoxycholate and the absorbance detected in a spectrophotometer at 590 nm. The adherent cells were expressed as a fraction of the controls. Each data point represents the average of triplicate experiments and the error bars the standard errors of the means. […]
as §3

adherent HT-29 cells = test: Annexin V-FITC apoptosis assay, adherent cells; assay type: cell-based, human; conditions: adherent HT-29; 24 hours; BAY compounds at doses up to 20, MG-132 20 μM
Description: FIG. 3 is a group of graphs that show NF-κB inhibitors cause apoptosis of colon cancer cells. […] The data points represent the average percent of annexin V-positive, propidium iodide-negative cells (of the total cells counted) from triplicate experiments. The error bars represent the standard error of the means. […] The results shown are a graphic representation of individual flow cytometry results expressed as the percentage of cells that were annexin V-positive of those that excluded propidium iodide. […] An immunoblot of the lysates for cleaved PARP was performed. Each lane represents equal total protein concentrations. […] The cells were allowed to adhere to plastic dishes for 1 hour after which they were washed gently in PBS and stained with crystal violet. The crystal violet stained cells were solubilized in deoxycholate and the absorbance detected in a spectrophotometer at 590 nm. The adherent cells were expressed as a fraction of the controls. Each data point represents the average of triplicate experiments and the error bars the standard errors of the means.
The data points represent the means of triplicate experiments and the error bars the standard errors of the means. […] The percent of apoptotic cells was then determined by the annexin V assay. […] The results shown are typical of two separate experiments. […] Immunoblots were performed for c-IAP-2, TRAF-1, TRAF-2, and FLIP. All lanes contain equal total protein.
as §4

FLIP = FLIP expression in pancreatic and colon cancer cell lines; assay type: cell-based, human; conditions: anisomycin 1.5 and 4 hours
Method: In order to determine the role of JNK activity in FLIP downregulation, pancreatic and colon cancer cell lines were treated with anisomycin for 1.5 and 4 hours.

JNK = JNK activity (phosphorylation of c-JUN) in colon and pancreatic cancer cell lines; assay type: cell-based, human
[5] = humans; after a single or multiple oral doses; read-out: Cmax blood levels; cited from earlier work
RANK = test: NF-κB activation in colon cancer cell lines incubated with soluble RANK; assay type: cell-based, human
Description: Of other members of the TNF receptor superfamily, Receptor Activator of NF-κB (RANK) is highly expressed in the digestive tract. […] Thus, RANK appears to be important in the activation of NF-κB during colon cancer cell readhesion.

O=C(Nc1ccccc1)c1cc([N+](=O)[O-])ccc1Cl [GW9662]
effect of GW9662 on the pro-apoptotic activity of pioglitazone ([1]; cancer cell readhesion): failed to inhibit the pro-apoptotic activity of pioglitazone | effect of GW 9662 on the efficacy of ciglitazone (HT-29 cells [2]): did not significantly affect the efficacy of ciglitazone | effect of GW 9662 on the efficacy of ciglitazone (Su.86 cells): did not significantly affect the efficacy of ciglitazone

CC(C)C[C@@H](C=O)NC(=O)[C@H](CC(C)C)NC(=O)[C@H](CC(C)C)NC(=O)OCc1ccccc1 [MG-132, N-[(phenylmethoxy)carbonyl]-leucyl-N-[(1S)-1-formyl-3-methylbutyl]-L-leucinamide] (Cbz-Leu-Leu-Leu-aldehyde)
cleaved PARP in cells that remained adherent (HT-29 cells [3]): only a small increase in cleaved PARP | cleaved PARP in nonadherent cells (HT-29 cells [3]): large increase in cleaved PARP | induction of apoptosis of HT-29 cells during readhesion [4]: more potently induced apoptosis | cleaved PARP in cells that remained adherent (HCT-116 cells): only a small increase in cleaved PARP | cleaved PARP in non-adherent cells (HCT-116 cells): large increase in cleaved PARP | level of apoptosis (annexin V-positive, propidium iodide-negative cells) (adherent HT-29 cells): relatively greater for MG-132 than BAY 11-7085; also recorded: caused a greater increase in apoptosis

COc1ccc(C[C@H]2NC[C@H](O)[C@H]2OC(C)=O)cc1 [anisomycin]
apoptosis during cell readhesion ([1]; colon and pancreatic cancer cell lines, anisomycin alone): not as effective as BAY 11-7085, anisomycin induced apoptosis | effect on pro-apoptotic activity of BAY 11-7085 ([1]; readhering colon and pancreatic cancer cells, anisomycin with BAY 11-7085): increased the pro-apoptotic activity of BAY 11-7085 | FLIP expression (FLIP): caused a decrease in FLIP expression | JNK activity (phosphorylation of c-JUN) (JNK): readily induced JNK activity

CCc1ccc(CCOc2ccc(CC3SC(=O)NC3=O)cc2)nc1 (stereo not drawn) [pioglitazone]
Cmax [5]: 2500 nM

B1: soluble RANK: soluble Receptor Activator of NF-κB, inhibits ligand-dependent RANK activation (protein, UniProt Q9Y6Q6 30-212, looked up)
extracellular domain: IAPPCTSEKHYEHLGRCCNKCEPGKYMSSKCTTTSDSVCLPCGPDEYLDSWNEEDKCLLHKVCDTGKALVAVVAGNSTTPRRCACTAGYHWSQDCECCRRNTECAPGLGAQHPLQLNKDTVCKPCLAGYFSDAFSSTDKCRPWTNCTFLGKRVEHHGTEKSDAVCSSSLPARKPPNEPHVYLP
modifications: extracellular domain
activation of NF-κB (RANK): significantly reduced the activation of NF-κB
